In publication PMC4823711, “Allosteric Partial Inhibition of Monomeric Proteases. Sulfated Coumarins Induce Regulation, not just Inhibition, of Thrombin” (Scientific Reports, 2016):

What was measured:
[1] = target: T1, fluorescein-labeled (f FPRCK-) thrombin (Homo sapiens, UniProt P00734); assay: Iodide fluorescence quenching of f FPRCK-thrombin (Stern-Volmer)
T1 construct: fluorescein-labeled (f FPRCK-) human thrombin; purchased Haematologic Technologies (Essex Junction, VT); host or cells: human plasma
Experimental: The quenching studies performed were done using quartz cuvettes, as described previously. 180 μL of buffer (20 mM Tris-HCl, 100 mM NaCl, 2.5 mM CaCl2, 0.1% PEG 8000, pH 7.4) and 20 μL of 2 μM fluorescein-labeled (f FPRCK-) human thrombin were added to the cuvette; fluorescent intensity readings were taken at the λEX of 490 nm and λEM of […] at 25 °C. A solution of 10 M NaI was made using buffer as the solvent. For the readings where inhibitor was absent, 1 μL increments of 10 M NaI was added directly to the cuvette after initial readings of the buffer-thrombin solution. NaI was added six times, while recording changes in fluorescent intensity each time, giving a concentration range of […] in the cuvette. For the readings where inhibitor was present, after the initial buffer-thrombin read, 1 μL of 80 μM inhibitor solution was added to the cuvette and mixed. An intensity reading was taken and then the addition of 1 μL increments of 10 M NaI was again performed six times, taking reads between each addition. The experiments were performed in triplicate and averaged. Initial fluorescence (F0) was the intensity reading from either the buffer-thrombin solution in the absence of 3g or following addition of 1 μL of 3g. […]

[2] = target: T1, fluorescein-labeled (f FPRCK-) thrombin; assay: Thermodynamic affinity by fluorescence titration; type: binding
Experimental: Affinity studies were performed in triplicate and conducted using quartz cuvettes. 180 μL of buffer (20 mM Tris-HCl, 100 mM NaCl, 2.5 mM CaCl2, 0.1% PEG 8000, pH 7.4) and 20 μL of 2 μM fluorescein-labeled (f FPRCK-) thrombin were added to the cuvette followed by titration with 1 μL additions of 3g. Fluorescence intensities were monitored by excitation at 490 nm and emission at 525 nm using slit widths of 0.5 mm. The KD of 3g–thrombin complex was calculated using the quadratic binding equation (equation 4) in which ∆F is the change in fluorescence from the formation of the thrombin-ligand complex with each addition of 3g. F0 is the initial fluorescence and ∆FMAX represents the maximum observed change in fluorescence due to thrombin saturation ([Th]0).

thrombin mutant R173A = target: T2, thrombin mutant R173A (Homo sapiens, UniProt P00734, R541A); assay: Inhibition of thrombin mutant R173A; type: biochemical; conditions: pH 7.4, 25 °C
T2 construct: a group of thrombin mutants containing replacement of either Arg or Lys present in exosite 2 to Ala
Experimental: (§1) Chromogenic substrate hydrolysis assay was used to measure potency of inhibition, as previously reported. The assay was performed using Flexstation III (Molecular Devices, Sunnyvale, CA) by monitoring substrate hydrolysis at 405 nm. For thrombin and its mutants, 180 μL of buffer (20 mM Tris-HCl, 100 mM NaCl, 2.5 mM CaCl2, 0.1% (polyethylene glycol) PEG 8000, pH 7.4) was added to each well followed by 5 μL of 240 nM thrombin and 10 μL of sulfated coumarin in DMSO to give 0.002 to 250 μM final concentration (or 10 μL of DMSO alone). After incubation for 10 min at 25 °C, 5 μL of 2 mM Spectrozyme TH was added to each well simultaneously and allowed to react for 60 seconds at 25 °C while simultaneously monitoring the reaction to obtain the rate of increase in A405. Identical experimental conditions were used for reactions in the presence of antithrombin, except for 100 nM of antithrombin added prior to the addition of the substrate.

thrombin mutant R126A = target: T3, thrombin mutant R126A (Homo sapiens, UniProt P00734, R486A); assay: Inhibition of thrombin mutant R126A; type: biochemical; conditions: pH 7.4, 25 °C
T3 construct: a group of thrombin mutants containing replacement of either Arg or Lys present in exosite 2 to Ala
Experimental: as §1

factor Xa = target: T4, factor Xa (Homo sapiens, UniProt P00742); assay: Antithrombin inactivation of factor Xa in the presence of sulfated coumarin; type: biochemical; conditions: 0 or 220 nM 3g, pH 7.2, 25 °C
T4 construct: antithrombin, factor Xa and factor XIa were from Haematologic Technologies; purchased Haematologic Technologies (Essex Junction, VT); host or cells: human plasma
Experimental: The effect of 3g on the reaction of thrombin (or factor Xa) with antithrombin was studied under pseudo-first order conditions such that [AT]0 ≫ [T]0. A fixed concentration of 6 nM plasma α-thrombin in 20 mM Tris-HCl buffer, pH 7.2, containing 100 mM NaCl, 2.5 mM CaCl2 and 0.1% PEG 8000 at 25 °C was incubated for 128 min with final concentrations of 0, 75, 225, or 675 nM of 3g following which a fixed concentration of 100 nM of antithrombin was added and the reaction allowed to proceed. […] The initial rate of hydrolysis of the Spectrozymes were monitored from the linear increase in A405. The fractional residual enzyme activity at each time point was calculated from the slope, i.e., thrombin activity, measured at the start of the experiment and fitted by the standard exponential decay equation 6 to calculate the observed pseudo-first order rate constant, kOBS, at each concentration of 3g. The intrinsic second-order rate constant of antithrombin inhibition of thrombin (kINT) was calculated using equation 7 and plotted against the concentration of thrombin–3g complex, obtained from quadratic equation 8, to derive the kINT of antithrombin inhibition of thrombin–3g complex.

thrombin mutant R233A = target: T5, thrombin mutant R233A (Homo sapiens, UniProt P00734, R608A); assay: Inhibition of thrombin mutant R233A; type: biochemical; conditions: pH 7.4, 25 °C
T5 construct: a group of thrombin mutants containing replacement of either Arg or Lys present in exosite 2 to Ala
Experimental: as §1

thrombin mutant R101A = target: T6, thrombin mutant R101A (Homo sapiens, UniProt P00734, R461A); assay: Inhibition of thrombin mutant R101A; type: biochemical; conditions: pH 7.4, 25 °C
T6 construct: a group of thrombin mutants containing replacement of either Arg or Lys present in exosite 2 to Ala
Experimental: as §1

thrombin mutant R93A = target: T7, thrombin mutant R93A (Homo sapiens, UniProt P00734, R452A); assay: Inhibition of thrombin mutant R93A; type: biochemical
T7 construct: a group of thrombin mutants containing replacement of either Arg or Lys present in exosite 2 to Ala
Experimental: as §1

T4 sequence (P00742 235-488 limits assumed): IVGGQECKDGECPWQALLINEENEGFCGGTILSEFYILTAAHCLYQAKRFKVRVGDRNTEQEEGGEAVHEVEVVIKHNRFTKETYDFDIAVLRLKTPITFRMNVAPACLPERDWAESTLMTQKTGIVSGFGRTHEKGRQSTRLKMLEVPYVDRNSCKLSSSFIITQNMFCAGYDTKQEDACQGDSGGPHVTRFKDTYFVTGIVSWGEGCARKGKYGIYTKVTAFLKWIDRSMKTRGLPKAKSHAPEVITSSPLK
T4 sequence (P00742 41-179 limits assumed): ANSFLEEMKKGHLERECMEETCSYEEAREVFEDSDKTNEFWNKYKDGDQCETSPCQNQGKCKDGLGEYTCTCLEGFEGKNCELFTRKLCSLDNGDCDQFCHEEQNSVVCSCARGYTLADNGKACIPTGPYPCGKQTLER

slope of iodide quenching (Stern-Volmer, KSV) ([1]; 90% saturation of thrombin, pH 7.4, 25 °C, thrombin alone 2.37 ± 0.14): 1.19 ± 0.06 M⁻¹ | reduction of iodide quenching of f FPRCK-thrombin ([1]; 90% saturation, versus thrombin alone): ~ 50% | ΔFMAX ([2]; loss in fluorescence at saturation): ~ 28% | Kd ([2]; pH 7.4, λEX 490 nm, λEM 525 nm, quadratic binding equation): 143 ± 14 nM | HS (thrombin mutant R173A): 2.0 | IC50 (thrombin mutant R173A): 522 ± 90 nM | ΔY (thrombin mutant R173A): 36 ± 3% | HS (thrombin mutant R126A): 3.2 | IC50 (thrombin mutant R126A): 308 ± 30 nM | ΔY (thrombin mutant R126A): 41 ± 2% | change in the second-order rate constant of antithrombin inhibition of factor Xa (factor Xa): did not induce any change | HS (thrombin mutant R233A): 2.0 | IC50 (thrombin mutant R233A): 359 ± 70 nM | ΔY (thrombin mutant R233A): 33 ± 4% | HS (thrombin mutant R101A): 2.5 | IC50 (thrombin mutant R101A): 255 ± 50 nM | ΔY (thrombin mutant R101A): 35 ± 4% | increase of inhibition potency in comparison to recombinant wild-type thrombin (thrombin mutant R93A; R93A mutant): 2.3 fold | HS (thrombin mutant R93A; R93A, pH 7.4, 25 °C): 1.3 | IC50 (thrombin mutant R93A; R93A, pH 7.4, 25 °C): 154 ± 20 nM | ΔY (thrombin mutant R93A; R93A, pH 7.4, 25 °C): 51 ± 2%
Structure (SMILES): O=c1oc2cc(OCCCCn3cc(COc4ccc(-c5c(-c6ccccc6)c6cc(Cl)cc(Cl)c6oc5=O)cc4)nn3)ccc2c(-c2ccccc2)c1-c1ccc(OS(=O)(=O)O)cc1 [3g]
